Reference: patent US20090221642A1, “MUSCARINIC RECEPTOR AGONISTS, COMPOSITIONS, METHODS OF TREATMENT THEREOF, AND PROCESSES FOR PREPARATION THEREOF-176” (AstraZeneca AB, priority 2008, published 2009)
pEC50: −log10 of the molar value.

How the values were obtained:
[1] = biological target: T1, cloned human M4 receptor (human Muscarinic receptor subtype 4) (Homo sapiens, UniProt P08173); assay: hM4 receptor GTPγS binding; type: biochemical; conditions: CHO cell membranes expressing hM4; [35S]GTPγS binding; read-out: hM4 EC50
T1 construct: purchased Perkin-Elmer RBHM4M; host or cells: Chinese hamster ovary cells (CHO) membranes
T1 sequence (P08173 1-479): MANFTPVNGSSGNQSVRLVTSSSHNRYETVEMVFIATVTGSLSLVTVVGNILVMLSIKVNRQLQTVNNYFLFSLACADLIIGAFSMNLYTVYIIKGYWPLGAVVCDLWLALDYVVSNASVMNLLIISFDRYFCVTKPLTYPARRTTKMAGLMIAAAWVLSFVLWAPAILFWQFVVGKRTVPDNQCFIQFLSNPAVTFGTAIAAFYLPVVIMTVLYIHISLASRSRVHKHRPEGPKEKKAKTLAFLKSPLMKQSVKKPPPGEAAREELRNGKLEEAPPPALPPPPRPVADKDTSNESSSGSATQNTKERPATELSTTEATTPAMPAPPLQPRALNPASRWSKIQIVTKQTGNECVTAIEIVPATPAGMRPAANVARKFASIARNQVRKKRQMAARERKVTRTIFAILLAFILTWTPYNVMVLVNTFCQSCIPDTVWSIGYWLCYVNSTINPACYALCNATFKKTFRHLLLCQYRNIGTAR
Description: hM4 Receptor GTPγS Binding
Membranes produced from Chinese hamster ovary cells (CHO) expressing the cloned human M4 receptor (human Muscarinic receptor subtype 4, gene bank access NM_000741), are obtained from Perkin-Elmer (RBHM4M). The membranes are thawed at 37° C., passed 3 times through a 23-gauge blunt-end needle, diluted in the GTPγS binding buffer (50 mM Hepes, 20 mM NaOH, 100 mM NaCl, 1 mM EDTA, 5 mM MgCl2, pH 7.4, 100 μM DTT). The EC50, IC50 and Emax of the compounds of the invention are evaluated from 10-point dose-response curves (three fold concentration range) done in 60 μl in 384-well non-specific binding surface plate (Corning). Ten microliters from the dose-response curves plate (5× concentration) are transferred to another 384 well plate containing 25 μl of the following: 10 μg of hM4 membranes, 500 μg of Flashblue beads (Perkin-Elmer) and GDP 40 μM. An additional 15 μl containing 3.3× (60,000 dpm) of GTPγ^35S (0.4 nM final) are added to the wells resulting in a total well volume of 50 μl. Basal and maximal stimulated [^35S]GTPγS binding are determined in absence and presence of 30 μM final of acetylcholine agonist. The membranes/beads mix are pre-incubated for 15 minutes at room temperature with 40 μM GDP prior to distribution in plates (20 μM final). The reversal of acetylcholine-induced stimulation (10 μM final) of [^35S]GTPγS binding is used to assay the antagonist properties (IC50) of the compounds. The plates are incubated for 60 minutes at room temperature then centrifuged at 400 rpm for 5 minutes. The radioactivity (cpm) is counted in a Trilux (Perkin-Elmer).
(§1) Values of EC50, IC50 and Emax are obtained using sigmoidal fits of a non-linear curve-fitting program (XLfit version 4.2.2 Excel add-in version 4.2.2 build 18 math 1Q version 2.1.2 build 18) of percent stimulated [^35S]GTPγS binding vs. log(molar ligand). All pEC50 and plC50 values are reported as arithmetic means ±standard error of mean of ‘n’ independent experiments.

[2] = biological target: T2, cloned human M2 receptor (human Muscarinic receptor subtype 2) (Homo sapiens, UniProt P08172); assay: hM2 receptor GTPγS binding; type: biochemical; conditions: CHO cell membranes expressing hM2; [35S]GTPγS binding; read-out: hM2 EC50
T2 construct: purchased Perkin-Elmer RBHM2M; host or cells: Chinese hamster ovary cells (CHO) membranes
T2 sequence (P08172 1-466): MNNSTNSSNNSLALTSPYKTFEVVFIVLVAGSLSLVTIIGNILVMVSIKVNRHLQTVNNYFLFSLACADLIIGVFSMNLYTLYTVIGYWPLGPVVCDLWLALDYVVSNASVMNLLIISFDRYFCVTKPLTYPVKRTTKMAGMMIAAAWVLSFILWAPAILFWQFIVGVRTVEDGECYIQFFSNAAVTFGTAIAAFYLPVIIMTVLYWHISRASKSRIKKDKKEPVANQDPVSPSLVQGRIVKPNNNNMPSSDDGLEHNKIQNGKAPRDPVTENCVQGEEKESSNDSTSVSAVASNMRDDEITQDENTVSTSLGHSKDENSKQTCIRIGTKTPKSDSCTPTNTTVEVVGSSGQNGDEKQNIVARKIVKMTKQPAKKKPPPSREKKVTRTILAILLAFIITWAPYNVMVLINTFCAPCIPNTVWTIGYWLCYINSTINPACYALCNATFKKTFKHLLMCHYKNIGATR
Description: hM2 Receptor GTPγS Binding
Membranes produced from Chinese hamster ovary cells (CHO) expressing the cloned human M2 receptor (human Muscarinic receptor subtype 2, gene bank access NM_000739), are obtained from Perkin-Elmer (RBHM2M). The membranes are thawed at 37° C., passed 3 times through a 23-gauge blunt-end needle, diluted in the GTPγS binding buffer (50 mM Hepes, 20 mM NaOH, 100 mM NaCl, 1 mM EDTA, 5 mM MgCl2, pH 7.4, 100 μM DTT). The EC50, IC50 and Emax of the compounds of the invention are evaluated from 10-point dose-response curves (three fold concentration range) done in 60 μl in 384-well non-specific binding surface plate (Corning). Ten microliters from the dose-response curves plate (5× concentration) are transferred to another 384 well plate containing 25 μl of the following: 5 μg of hM2 membranes, 500 μg of Flashblue beads (Perkin-Elmer) and GDP 25 μM. An additional 15 μl containing 3.3× (60,000 dpm) of GTPγ^35S (0.4 nM final) are added to the wells resulting in a total well volume of 50 μl. Basal and maximal stimulated [^35S]GTPγS binding are determined in absence and presence of 30 μM final of acetylcholine agonist. The membranes/beads mix are pre-incubated for 15 minutes at room temperature with 25 μM GDP prior to distribution in plates (12.5 μM final). The reversal of acetylcholine-induced stimulation (2 μM final) of [^35S]GTPγS binding is used to assay the antagonist properties (IC50) of the compounds. The plates are incubated for 60 minutes at room temperature then centrifuged at 400 rpm for 5 minutes. The radioactivity (cpm) is counted in a Trilux (Perkin-Elmer).
as §1

SMILES | pEC50 [1] | pEC50 [2]
CC1(N2CCC(n3c(=O)[nH]c4ccc(F)cc43)CC2)CCN(C(=O)OCCF)C1 (single isomer, unassigned) [Example 53, 2-fluoroethyl 3-(4-(6-fluoro-2-oxo-2,3-dihydro-1H-benzo[d]imidazol-1-yl)piperidin-1-yl)-3-methylpyrrolidine-1-carboxylate] | 5.25 | 5.79
CCOC(=O)N1CCC(C)(N2CCC(n3c(=O)[nH]c4cc(F)c(C)cc43)CC2)C1 (single isomer, unassigned) [Example 55, ethyl 3-(4-(5-fluoro-6-methyl-2-oxo-2,3-dihydro-1H-benzo[d]imidazol-1-yl)piperidin-1-yl)-3-methylpyrrolidine-1-carboxylate] | 5.77 | 6.50
CCOC(=O)N1CCC(C)(N2CCC(n3c(=O)[nH]c4cc(F)c(C)cc43)CC2)C1 (single isomer, unassigned) [Example 56, ethyl 3-(4-(5-fluoro-6-methyl-2-oxo-2,3-dihydro-1H-benzo[d]imidazol-1-yl)piperidin-1-yl)-3-methylpyrrolidine-1-carboxylate] | 6.62 | 7.62
CCOC(=O)N1CCC(C)(N2CCC(n3c(=O)[nH]c4cc(F)c(F)cc43)CC2)C1 (single isomer, unassigned) [Example 57, ethyl 3-(4-(5,6-difluoro-2-oxo-2,3-dihydro-1H-benzo[d]imidazol-1-yl)piperidin-1-yl)-3-methylpyrrolidine-1-carboxylate] | 5.66 | 6.37
CCOC(=O)N1CCC(C)(N2CCC(n3c(=O)[nH]c4cc(F)c(F)cc43)CC2)C1 (single isomer, unassigned) [Example 58, ethyl 3-(4-(5,6-difluoro-2-oxo-2,3-dihydro-1H-benzo[d]imidazol-1-yl)piperidin-1-yl)-3-methylpyrrolidine-1-carboxylate] | 5.01 | 5.68
COC(=O)N1CCC(C)(N2CCC(n3c(=O)[nH]c4cc(F)c(F)cc43)CC2)C1 (single isomer, unassigned) [Example 60, methyl 3-(4-(5,6-difluoro-2-oxo-2,3-dihydro-1H-benzo[d]imidazol-1-yl)piperidin-1-yl)-3-methylpyrrolidine-1-carboxylate] | 5.29 | 5.99
CC1(N2CCC(n3c(=O)[nH]c4cc(F)c(F)cc43)CC2)CCN(C(=O)OCCF)C1 (single isomer, unassigned) [Example 61, 2-fluoroethyl 3-(4-(5,6-difluoro-2-oxo-2,3-dihydro-1H-benzo[d]imidazol-1-yl)piperidin-1-yl)-3-methylpyrrolidine-1-carboxylate] | 5.35 | 5.77
COC(=O)N1CCC(C)(N2CCC(N3C(=O)Cc4ccc(C)cc43)CC2)C1 (single isomer, unassigned) [Example 67, methyl 3-methyl-3-(4-(6-methyl-2-oxoindolin-1-yl)piperidin-1-yl)pyrrolidine-1-carboxylate] | 4.82 | 5.33
COC(=O)N1CCC(C)(N2CCC(N3C(=O)Cc4ccc(C)cc43)CC2)C1 (single isomer, unassigned) [Example 68, methyl 3-methyl-3-(4-(6-methyl-2-oxoindolin-1-yl)piperidin-1-yl)pyrrolidine-1-carboxylate] | 5.21 | 5.94
CCOC(=O)N1CCC(C)(N2CCC(N3C(=O)Cc4ccc(C)cc43)CC2)C1 (single isomer, unassigned) [Example 69, ethyl 3-methyl-3-(4-(6-methyl-2-oxoindolin-1-yl)piperidin-1-yl)pyrrolidine-1-carboxylate] | 5.05 | 5.73
CCOC(=O)N1CCC(C)(N2CCC(N3C(=O)Cc4ccc(C)cc43)CC2)C1 (single isomer, unassigned) [Example 70, ethyl 3-methyl-3-(4-(6-methyl-2-oxoindolin-1-yl)piperidin-1-yl)pyrrolidine-1-carboxylate] | 5.75 | 6.35
CCOC(=O)N1CCC(C)(N2CCC(N3C(=O)Cc4ccccc43)CC2)C1 (single isomer, unassigned) [Example 72, ethyl 3-methyl-3-(4-(2-oxoindolin-1-yl)piperidin-1-yl)pyrrolidine-1-carboxylate] | < 4.05 | 6.02
CCOC(=O)N1CCC(C)(N2CCC(N3C(=O)Cc4ccccc43)CC2)C1 (single isomer, unassigned) [Example 73, ethyl 3-methyl-3-(4-(2-oxoindolin-1-yl)piperidin-1-yl)pyrrolidine-1-carboxylate] | < 4.05 | 5.21
CCOC(=O)N1CCC(C)(N2CCC(N3C(=O)Cc4ccc(F)cc43)CC2)C1 (single isomer, unassigned) [Example 74, ethyl 3-(4-(6-fluoro-2-oxoindolin-1-yl)piperidin-1-yl)-3-methylpyrrolidine-1-carboxylate] | 5.44 | 5.87
CCOC(=O)N1CCC(C)(N2CCC(N3C(=O)Cc4ccc(F)cc43)CC2)C1 (single isomer, unassigned) [Example 75, ethyl 3-(4-(6-fluoro-2-oxoindolin-1-yl)piperidin-1-yl)-3-methylpyrrolidine-1-carboxylate] | < 4.72 | 5.58
COC(=O)N1CCC(C)(N2CCC(N3C(=O)Cc4ccc(F)cc43)CC2)C1 (single isomer, unassigned) [Example 76, methyl 3-(4-(6-fluoro-2-oxoindolin-1-yl)piperidin-1-yl)-3-methylpyrrolidine-1-carboxylate] | < 4.05 | 5.46
CCOC(=O)N1CCC(C)(N2CCC(N3C(=O)Cc4cc(F)ccc43)CC2)C1 (single isomer, unassigned) [Example 79, ethyl 3-(4-(5-fluoro-2-oxoindolin-1-yl)piperidin-1-yl)-3-methylpyrrolidine-1-carboxylate] | 5.36 | 5.95
